One assay concerns the target MOR (Rattus norvegicus, UniProt P33535). The experiment in a line: cAMP assay (adenylyl cyclase inhibition) in HEK-MOR cells. The format is cell-based. Here is the method:
Human embryonic kidney 293 (HEK-293) cells constitutively expressing MOR (HEK-MOR) and DOR (HEK-DOR) (kindly provided by Dr. Ping-Yee Law, University of Minnesota, USA) were cultured in high-glucose Dulbecco's modified Eagle's medium (DMEM, GIBCO) supplemented with 400 μg/mL G418 (Sigma), 2 mM L-glutamine and P/S/F (100 units/mL penicillin, 100 μg/mL streptomycin, 10% fetal bovine serum). Chinese hamster ovary (CHO)-K1 cells, stably expressing hMOR and Gα15 (CHO-K1/MOR/Gα15), were cultured in F12 medium (GIBCO) supplemented with 10 μg/mL Hygromycin B (Invivogen), 20 μg/mL Zeocin (Invivogen) P/S/F (100 units/mL penicillin, 100 μg/mL streptomycin, 10% fetal bovine serum). The cultures were incubated at 37° C. in a humidified 5% CO2 incubator.
Briefly, 2000 HEK-MOR cells or HEK-DOR cells were plated in 10 μL/well of DMEM in 96-well solid bottom white plates and 10 μL/well compound in HBSS in the presence with 1 μM forskolin and 100 μM 3-isobutyl-1-methylxanthine (IBMX). After 30 minutes of incubation at room temperature, 10 μL/well of labeled d2-cAMP and 10 μL/well of anti-cAMP antibody (both diluted in lysis buffer) were added to each well. Two hours later, plates were measured using the FlexStationIII (Molecular Devices Corp.) with excitation at 330 nm and emissions of 620 nm and 665 nm. […]

For the next assay, the system named is B6 mice. The experiment in a line: Tail-flick test. The format is in vivo, mouse. How it is done:
In an exemplary in vivo method, a test compound and a MOR antagonist are injected into a mouse pain model (for example, intravenous but not limited), basal latencies are recorded before the treatment and test latencies are recorded at various specified times after the injection, and a time-response curve is recorded and AUC values are calculated to determine whether an analgesic effect is exerted on the mouse. The test compound is confirmed to be an antagonist-to-agonist allosteric modifier of the MOR upon observation of an analgesic effect.
Male wild-type (WT) B6 mice (25-30 g) were kept in a temperature-controlled animal room with a 12-h light/dark cycle. The protocol has been approved by the Institutional Animal Care and Use Committee of the National Health Research Institutes, Taiwan. Animal experiments were carried out in accordance with the Policies on the Use of Animals in Neuroscience Research and the ethical guidelines for investigations of experimental pain in conscious animals, International Association for the Study of Pain. Tail-Flick Analgesia Meter (Columbia Instruments) was used to measure the tail-flick latencies of mice. The cut-off time for each measurement was 10 s to avoid tissue damage. Basal latencies were recorded before treatment and test latencies were recorded 30, 60, 90, 120 and 180 min after an intravenous injection of drugs. […] ED50 values were determined by the up-and-down method reported in Crocker et al., Pharmacol Biochem Behav, 1984, 21, 133-136.
An in vivo study, i.e., tail-flick test, was performed to investigate whether AAMs could change innate character of μ-opioid receptor in the presence of naloxone. […] In mice injected with naloxone (10 mg/kg; s.c.), the ED50 value of compound 58 in inhibition of the tail-flick response was determined to be 23.1±7.1 nmole.
For orientation: Hot-plate and tail-flick tests time the reaction to a heat stimulus.

MOR, sequence (P33535 whole entry, looked up): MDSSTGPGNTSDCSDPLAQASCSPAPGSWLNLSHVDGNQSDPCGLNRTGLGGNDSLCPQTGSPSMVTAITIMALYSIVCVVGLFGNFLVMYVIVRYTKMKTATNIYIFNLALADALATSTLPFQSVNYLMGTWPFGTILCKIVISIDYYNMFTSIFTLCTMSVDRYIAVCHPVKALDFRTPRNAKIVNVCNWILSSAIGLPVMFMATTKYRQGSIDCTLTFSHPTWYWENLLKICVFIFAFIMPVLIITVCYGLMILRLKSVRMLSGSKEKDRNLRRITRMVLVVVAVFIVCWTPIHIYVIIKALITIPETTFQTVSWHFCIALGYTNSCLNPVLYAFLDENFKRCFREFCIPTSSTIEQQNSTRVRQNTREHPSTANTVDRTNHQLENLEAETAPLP

On to `Cc1cc(C(=O)O)ccc1N1C(=O)CSC1c1ccc(F)cc1` (centres unmarked), for which the “selectivity mu over delta opioid receptor” value on MOR (HEK-MOR vs HEK-DOR, with naloxone (20 nM)) is “selective for mu-over delta-opioid receptors”. The “inhibition of adenylyl cyclase activity” value on MOR (HEK-MOR, combined with naloxone (20 nM)) was “significantly inhibited adenylyl cyclase activity”. Also, the “AUC of tail-flick inhibition” value is 241.5±111.3 min×s in the assay with B6 mice (12.5 nmole i.t. with naloxone (10 mg/kg; s.c.)), 560.6±96.5 min×s in the assay on B6 mice (25 nmole i.t. with naloxone (10 mg/kg; s.c.)) and 649.8±123.3 min×s in the assay on B6 mice (50 nmole i.t. with naloxone (10 mg/kg; s.c.)). For the same compound, the “antinociceptive effect, compound alone” value with B6 mice (B6 mice, 50, 25, 12.5 and 6.25 nmole i.t., no naloxone) is recorded as “didn't exhibit any antinociceptive effects”. Also, the “ED50 in inhibition of the tail-flick response” value in the assay with B6 mice (mice injected with naloxone (10 mg/kg; s.c.), compound i.t.) worked out at 23.1 ± 7.1 nmol. In addition, the “antinociception effect in mice injected with saline” value with B6 mice (saline, highest dose 50 nmole i.t.) is recorded as “no antinociception effect was observed”.

For the origin of these results see patent publication US10544113B2 (priority 2016, dated 2020).
